Source: patent US20230270703A1, “COMPOUNDS AND METHODS FOR THE TREATMENT OF EYE DISORDERS” (OccuRx Pty Ltd, priority 2020, published 2023)
Where two headings read alike, the source gives them in different places.

Assays:
[1] = Dog plasma pharmacokinetic study, single daily dose for 28 days, plasma on first day of dosing; assay type: in vivo, Beagle dogs; settings: beagle, read-out: elimination half-life (converted)
Experimental: Beagle dogs were administered a single daily dose of (E)-2-[[3-Methoxy-4-(difluoromethoxy)phenyl-1-oxo-2-propenyl]amino]benzoic at 25, 50 or 100 mg/kg for 28 consecutive days. Plasma was collected up to 24 hours post-dose on the first day of dosing.

[2] = Animal pharmacokinetic data, 91 days of dosing in dogs; assay type: in vivo
[3] = Animal pharmacokinetic data, 91 days of dosing in rats; assay type: in vivo
[4] = Human Phase I clinical study, steady state exposure at 50 mg after 14 days dosing; assay type: in vivo, humans; settings: plasma, oral, Data from Phase I (after 14 days dosing)
Experimental: The corresponding data from the human Phase I clinical study is also included below, showing a much greater than predicted Cmax and AUC0-24 at 50 mg dosing.

[5] = Human clinical plasma pharmacokinetics, single or multiple doses of 200 mg; assay type: in vivo, humans; settings: for Dose normalised AUC0-inf / Dose normalised Cmax / AUC(0-inf) / Cmax / Tmax / half-life: 200 mg oral; for AUC(0-inf) / Cmax / Tmax / half-life: human, plasma, po; for half-life: read-out: T ½ (converted)
Experimental: Clinical pharmacokinetic studies were also conducted on volunteers who received a single dose or multiple doses of 200 mg (E)-2-[[3-Methoxy-4-(difluoromethoxy)phenyl-1-oxo-2-propenyl]amino] benzoic acid administered as powder-in-capsule. Blood was collected 10 minutes prior to dosing, and at 15 and 30 minutes and 1, 2, 3, 4, 6, 8, 12, 24, 36, 48, 72 and 96 hours post dose into K2EDTA tubes. Samples were spun in a refrigerated centrifuge within 1 hour of collection, at 2000 g for 10 minutes. Plasma was collected and frozen on dry ice.
(§1) The concentration of (E)-2-[[3-Methoxy-4-(difluoromethoxy)phenyl-1-oxo-2-propenyl]amino]benzoic acid in plasma was determined using a validated LC-MS/MS method. A non-compartmental analysis was performed using WinNonLin software. Nominal doses and sampling times were used. Concentration values below the lower limit of quantitation were treated as zero for pharmacokinetic analysis.

[6] = Rat plasma pharmacokinetic study, single daily dose for 28 days, plasma on first day of dosing; assay type: in vivo, Sprague-Dawley rats; settings: Sprague-Dawley, read-out: elimination half-life (converted)
Experimental: Sprague-Dawley rats were administered a single daily dose of (E)-2-[[3-methoxy-4-(difluoromethoxy)phenyl-1-oxo-2-propenyl]amino]benzoic at 25, 50 or 100 mg/kg for 28 consecutive days. Plasma was collected up to 24 hours post-dose on the first day of dosing.

[7] = Human Phase I clinical trial plasma pharmacokinetics, single 50 mg dose; assay type: in vivo, humans; settings: 50 mg single oral dose
Experimental: Six healthy male volunteers in a Phase I clinical trial received a single dose of 50 mg (E)-2-[[3-Methoxy-4-(difluoromethoxy)phenyl-1-oxo-2-propenyl]amino] benzoic acid administered as powder-in-capsule. Blood was collected 10 minutes prior to dosing, and at 15 and 30 minutes and 1, 2, 3, 4, 6, 8, 12, 24, 36, 48, 72 and 96 hours post dose into K2EDTA tubes. Samples were spun in a refrigerated centrifuge within 1 hour of collection, at 2000 g for 10 minutes. Plasma was collected and frozen on dry ice.
as §1

[8] = Rabbit plasma and ocular tissue steady state pharmacokinetics, 8 daily oral doses; assay type: in vivo, Dutch Belted pigmented rabbits; settings: for Tmax / Cmax: male, Dutch Belted
Experimental: Male Dutch Belted pigmented rabbits were administered a once daily dose of 50 or 100 mg/kg of (E)-2-[[3-Methoxy-4-(difluoromethoxy)phenyl-1-oxo-2-propenyl]amino]benzoic acid by oral gavage for 8 days. The oral formulation was prepared in 1% carboxymethyl cellulose. Blood was collected into tubes containing K2EDTA from two animals/dose/time point at 0 (predose), 1, 2, 4, 8, and 24 hours after the last dose on Study Day 8. Immediately following blood collection, animals were sacrificed via overdose of sodium pentobarbital. Blood samples were placed in a chilled cryorack until centrifuged to obtain plasma, which was stored at approximately -70° C. At the time of sacrifice for all animals, both eyes were enucleated, the aqueous humor was collected and discarded, and each eye was then flash frozen in liquid nitrogen for 15 to 20 seconds. The enucleated eye was placed on dry ice or stored at approximately -70° C. for at least two hours. Within approximately 5 days, the choroid-RPE, iris-ciliary body, retina and vitreous humor were collected from the right and left eye. The ocular tissues were rinsed with saline and blotted dry, as appropriate, weighed, and placed on dry ice. Sample analysis was performed using a qualified LC-MS/MS method to ascertain the concentration of (E)-2-[[3-Methoxy-4-(difluoromethoxy)phenyl-1-oxo-2-propenyl]amino]benzoic acid in each tissue matrix. Non-compartmental analysis (Gibaldi and Perrier, 1982) was applied to the individual and mean concentration data. Nominal doses and sampling times were used. Concentration values below the lower limit of quantitation were treated as zero for pharmacokinetic analysis. The plasma and ocular steady state non-compartmental pharmacokinetic parameters for repeated oral administration of 50 or 100 mg/kg on Day 8 are summarized in Table 2 and further below.

[9] = Rat plasma and retina pharmacokinetics, single oral dose 50 mg/kg; assay type: in vivo, Sprague Dawley rats; settings: single oral dose 50 mg/kg
Experimental: Male Sprague Dawley rats were administered a single dose of 50 mg/kg of (E)-2-[[3-Methoxy-4-(difluoromethoxy)phenyl-1-oxo-2-propenyl]amino]benzoic acid by oral gavage. The oral formulation was prepared in 1% carboxymethyl cellulose. Samples were collected from 3 animals/timepoint at 1, 2, 4, 8 and 24 hours after dosing. Whole blood was collected from the tail vein in conscious rats into polypropylene tubes containing heparin. Blood samples were centrifuged immediately (3000 rpm, for 10 minutes) and supernatant plasma removed and snap frozen in liquid N2. After blood collection, animals were euthanised with pentobarbitone (120 mg/kg), eyes were enucleated and retina were weighed, collected and snap frozen in liquid nitrogen. Blood was centrifuged at 3000 rpm for 10 mins at 4° C. and plasma was collected and snap frozen in liquid N2. Plasma and retinal concentrations of (E)-2-[[3-Methoxy-4-(difluoromethoxy)phenyl-1-oxo-2-propenyl]amino]benzoic acid were determined using a validated LC-MS/MS method. Cmax and Tmax was estimated using GraphPad prism software.

[10] = human plasma, cited from earlier work
[11] = Tranilast plasma pharmacokinetics after 200 mg oral dosage (data from Charng et al.); assay type: in vivo, humans; settings: human plasma
Experimental: Pharmacokinetic data for a comparator compound Tranilast following 200 mg oral dosage are also shown. See, e.g., Charng M, Ding P Y, Chuang M, et al. Pharmacokinetic Properties of Tranilast in Chinese People. Journal of Food and Drug Analysis, Vol. 10, No. 3, 2002, Pages 135-138. Tranilast is approved for use in an amount of 3 × 100 mg/day.

[12] = Tranilast 200 mg, Day 1, single dose

`COc1cc(/C=C/C(=O)Nc2ccccc2C(=O)O)ccc1OC(F)F` [(E)-2-[[3-methoxy-4-(difluoromethoxy)phenyl-1-oxo-2-propenyl]amino]benzoic acid] gave a half-life ([1]; 25 mg/kg) of 4.3 h, a half-life ([1]; 50 mg/kg) of 4.9 h and a half-life ([1]; 100 mg/kg) of 4.2 h. For the same compound, the “accumulation with multiple dosing” value [2] was “did not show accumulation”, the “accumulation with multiple dosing” value [3] was “did not show accumulation” and the Cmax [4] was 6560 ng/mL. The AUC(0-t) ([4]; read-out: AUC0-24 hrs, ss) was 74 µg·h/mL, the “Dose normalised AUC0-inf” value ([5]; Day 1, single dose) was 1951 ng·h/mL and the “Dose normalised Cmax” value ([5]; Day 1, single dose) was 164 ng/mL. For the same compound, the “Dose normalised AUC0-inf” value ([5]; Day 14, multiple dose) was 18,874 ng·h/mL, the “Dose normalised Cmax” value ([5]; Day 14, multiple dose) was 338 ng/mL and the “increase in Cmax after 14 days of dosing compared with a single dose” value ([5]; 200 mg, steady state vs single dose) was “two-fold increase”. The AUC(0-inf) ([5]; 200 mg, Day 1, single dose) was 390 µg·h/mL, the Cmax ([5]; 200 mg, Day 1, single dose) was 32800 ng/mL and the Tmax ([5]; 200 mg, Day 1, single dose) was 3 h. It also gave a half-life ([5]; 200 mg, Day 1, single dose) of 9.6 h, an AUC(0-inf) ([5]; 200 mg, Day 14, multiple dose) of 3770 µg·h/mL and a Cmax ([5]; 200 mg, Day 14, multiple dose) of 67600 ng/mL. It also gave a Tmax ([5]; 200 mg, Day 14, multiple dose) of 2.5 h, a half-life ([5]; 200 mg, Day 14, multiple dose) of 23.2 h and a half-life ([6]; 25 mg/kg) of 12.9 h. The half-life ([6]; 50 mg/kg) was 13 h, the half-life ([6]; 100 mg/kg) was 11 h and the “Dose normalised AUC0-inf” value [7] was 2,256 ng·h/mL. For the same compound, the “Dose normalised Cmax” value [7] was 175 ng/mL, the AUC(0-inf) ([7]; male) was 113 µg·h/mL and the Tmax ([7]; male) was 2.5 h. The Cmax ([7]; male, powder-in-capsule) was 8740 ng/mL, the half-life ([7]; male, read-out: T ½ (converted)) was 24 h and the Tmax ([8]; oral, rabbit ocular tissues, 50 and 100 mg/kg, read-out: Tmax for all analyzed ocular tissues) was 1 to 4 h. It also gave a Cmax ([8]; rabbit Choroid-RPE, 50 mg/kg/day oral, Day 8) of 3320 ng/g, a Tmax ([8]; rabbit Choroid-RPE, 50 mg/kg/day oral, Day 8, read-out: Tmax) of 1 h and a Cmax ([8]; rabbit Choroid-RPE, 100 mg/kg/day oral, Day 8) of 12300 ng/g. The Tmax ([8]; rabbit Choroid-RPE, 100 mg/kg/day oral, Day 8, read-out: Tmax) was 2 h, the Cmax ([8]; rabbit Iris Ciliary Body, 50 mg/kg/day oral, Day 8) was 2510 ng/g and the Tmax ([8]; rabbit Iris Ciliary Body, 50 mg/kg/day oral, Day 8, read-out: Tmax) was 1 h. The Cmax ([8]; rabbit Iris Ciliary Body, 100 mg/kg/day oral, Day 8) was 8620 ng/g, the Tmax ([8]; rabbit Iris Ciliary Body, 100 mg/kg/day oral, Day 8, read-out: Tmax) was 2 h and the Cmax ([8]; rabbit Plasma, 50 mg/kg/day oral, Day 8) was 15200 ng/mL. It also gave a Tmax ([8]; rabbit Plasma, 50 mg/kg/day oral, Day 8, read-out: Tmax) of 1 h, a Cmax ([8]; rabbit Plasma, 100 mg/kg/day oral, Day 8) of 42000 ng/mL and a Tmax ([8]; rabbit Plasma, 100 mg/kg/day oral, Day 8, read-out: Tmax) of 2 h. It also gave a Cmax ([8]; rabbit Retina, 50 mg/kg/day oral, Day 8) of 623 ng/g, a Tmax ([8]; rabbit Retina, 50 mg/kg/day oral, Day 8, read-out: Tmax) of 1 h and a Cmax ([8]; rabbit Retina, 100 mg/kg/day oral, Day 8) of 2370 ng/g. It also gave a Tmax ([8]; rabbit Retina, 100 mg/kg/day oral, Day 8, read-out: Tmax) of 4 h, a Cmax ([8]; rabbit Vitreous Humour, 50 mg/kg/day oral, Day 8) of 3.3 ng/mL and a Tmax ([8]; rabbit Vitreous Humour, 50 mg/kg/day oral, Day 8, read-out: Tmax) of 1 h. The Cmax ([8]; rabbit Vitreous Humour, 100 mg/kg/day oral, Day 8) was 11.5 ng/mL, the Tmax ([8]; rabbit Vitreous Humour, 100 mg/kg/day oral, Day 8, read-out: Tmax) was 4 h and the “detection in plasma or ocular tissue by 24 hours-post dose” value ([8]; rabbits, either dose (50 or 100 mg/kg)) was “could not be detected”. The Cmax ([9]; male, Sprague Dawley, rat retina, read-out: estimated Cmax in retina) was 792 ng/g, the “estimated maximum concentration in plasma” value ([9]; rat plasma) was 35,134 ng/mL and the “time of estimated maximum concentration in plasma” value ([9]; rat plasma) was 1 h. For the same compound, the “time of estimated maximal exposure in retina” value ([9]; rat retina) was 4 h and the “detection in the plasma and retina at 24-hours post-dose” value ([9]; rat) was “still detected”.

For `COc1ccc(/C=C/C(=O)Nc2ccccc2C(=O)O)cc1OC` [Tranilast], the AUC(0-inf) ([10]; Tranilast 200 mg oral) is listed as 412,000 ng·h/mL, the Cmax ([10]; Tranilast 200 mg oral) is listed as 42,000 ng/mL and the “T ½” value ([10]; Tranilast 200 mg oral) is listed as 7.5 h. For the same compound, the Tmax ([10]; Tranilast 200 mg oral) was 2.8 h, the AUC(0-inf) [10, 12] was 412,000 ng-h/mL and the Cmax [10, 12] was 42,000 ng/mL. For the same compound, the “T ½” value [10, 12] was 7.5 h, the Tmax [10, 12] was 2.8 h and the “Dose normalised AUC0-inf” value ([11]; Tranilast 200 mg oral) was 2,060 ng·h/mL. For the same compound, the “Dose normalised Cmax” value ([11]; Tranilast 200 mg oral) was 210 ng/mL, the “Dose normalised AUC0-inf” value [11, 12] was 2,060 ng·h/mL and the “Dose normalised Cmax” value [11, 12] was 210 ng/mL.
